Values of other authors as cited in patent US20130338126A1, “Ophthalmic Suspension for Ocular Use” (Allergan, Inc., priority 2008, published 2013).

Key:
[1] = tested on: Staphylococcus aureus and Staphylococcus epidermidis
[2] = human, in vivo
[3] = tested on: Streptococcus pneumoniae isolates; settings: all study visits
[4] = tested on: bacterial flora in the eye
[5] = tested on: Mycobacterium chelonae
[6] = tested on: Haemophylus influenzae clinical isolated cases; settings: clinical isolates
[7] = tested on: topoisomerase II or gyrase mutations
[8] = topical; p<0.005
[9] = ophthalmic solution 0.3% or 0.5% w/v, 2 drops up to 8 times a day; below inferior limit of quantification, all individuals
[10] = tested on: bacterial keratitis
[11] = tested on: methicillin resistant Staphylococcus aureus, and Staphylococcus epidermidis; settings: in vitro, gram-positive microorganisms
[12] = tested on: Streptococcus epidermidis
[13] = tested on: pathogenic agents
[14] = tested on: Corynebacterium propinquum, Staphylococcus aureus, Staphylococcus epidermidis, Streptococcus mitis, Streptococcus pneumoniae, Haemophilus influenzae; settings: both in vitro and clinically, in conjunctival infections
[15] = tested on: mycobacterium
[16] = tested on: bacterial conjunctivitis; settings: 0.3% ophthalmic solution, treated five days
[17] = tested on: 379 isolated microorganisms; settings: first day of treatment
[18] = tested on: gram-negative microorganisms; settings: many gram-negative microorganisms
[19] = tested on: bacteria; settings: in vitro
[20] = tested on: gram-negative bacteria, including all Haemophilus influenzae isolates; settings: all study visits
[21] = tested on: bacterial conjunctivitis; settings: day 6 of treatment

COc1c(N2CCNC(C)C2)c(F)cc2c(=O)c(C(=O)O)cn(C3CC3)c12 (centres unmarked) [gatifloxacin]
bacterial resistance rates [1]: lower for gatifloxacin than for ciprofloxacin or norfloxacin | adverse events: frequency, type, intensity or relation to causes versus ofloxacin or placebo [2]: no statistically significant differences | sensitivity of isolates [3]: All Streptococcus pneumoniae isolates were sensitive | rate of bacterial reduction in the conjunctiva ([4]; gatifloxacin 0.3% / levofloxacin 0.5% ophthalmic solutions, one week pre-operative): 74.3% | post-operative infection (endophthalmitis) ([4]; one week pre-operative treatment, cataract surgery): None of the individuals treated develop a post-operative infection | action when combined with amicacin and claritromicin [5]: synergistic action | effectiveness relative to ciprofloxacin ([5]; p<0.001): more effective than ciprofloxacin | effectiveness relative to ofloxacin [6]: two times more effective | effect of mutations, compared to ofloxacin, ciprofloxacin, sparfloxacin and trovafloxacin [7]: less affected | penetration in the eye structures compared to ciprofloxacin [8]: better penetration in the tissue | plasma levels [9]: < 5 ng/mL | action against gram-positive cocci versus ciprofloxacin ([10]; p<0.001): significantly superior | rate of complete ulcer healing versus ciprofloxacin ([10]; patients with keratitis): significantly higher rate of complete ulcer healing | potency compared with ciprofloxacin, ofloxacin, levofloxacin and moxifloxacin [11]: more powerful than other quinolones | effectiveness relative to ofloxacin [12]: eight times more effective | cross-resistance with aminoglycosides, macrolides and tetracycline antibiotics [13]: No cross-resistance has been observed | cross-resistance with some other fluoroquinolones ([13]; systemic gatifloxacin): Cross-resistance has been observed | activity against most strains [14]: shown to be active | effectiveness relative to ciprofloxacin [15]: four times more effective/active | killing rate of etiological agents [16]: 92% | clinical cure rate ([16]; culture-confirmed bacterial conjunctivitis): 77% | sensitiveness of isolates [17]: 95.8% | activity compared to ofloxacin [18]: increased activity compared to ofloxacin | bacterial resistance [19]: low | sensitivity of isolates [20]: All gram-negative bacteria were also sensitive | rates of microbiological cure [21]: 83.3%
